What was measured:
PME cells = assay: Crystal violet assay / cell counts of primary mammary epithelial cells (PMEs) treated with cell penetrating peptides; type: cell-based, human; details: synthetic peptides at 5 μM
Method: Crystal violet assay/optical density method of cell quantitation: 5×10^5 cells were plated per well in 6-well tissue culture plates. At times indicated cells were washed with PBS and fixed for 10 minutes in a 10% formalin solution. Cells were then rinsed with distilled water and subsequently stained with 100 μl 0.1% crystal violet solution for 30 min. Stained cells were rinsed with water to remove the excess traces of the staining solution. Cell-associated crystal violet dye was extracted with 500 μl of 10% acetic acid. Aliquots were collected and optical density was measured at 590 nm wavelength. Each point on the curve shown represents 3 independent wells.
(§1) Cell counts for CPP treatments: Cells were plated in 6-well dishes and incubated with 5 μM concentration of peptides. At days noted, cells were trypsinized and counted using a hemocytometer.
Whether recombinant RRM3 conjugated with the Penetratin cell penetrating peptide (Dupont E, et al., Methods Mol Biol. 1324:29-37 (2015)) (FIGS. 9A, B) affects growth of T47D and PME cells was tested. Equal numbers of PME and T47D cells were seeded and incubated with 5 μM peptide in media for 72 hrs. […] Compared to CPP-coupled RRM3, CPP-RRM1 and RRM3 had no effect (FIGS. 9H-N). […]

[1] = test system: breast cancer cell subtypes; assay: Total cell number and viability of an array of breast cancer cell subtypes treated with synthetic RRM3-derived peptides; type: cell-based, human; details: synthetic peptides at 5 μM; for proliferation (total cell number) of breast cancer cell subtypes: 72 hours
Method: FIG. 10. RRM3-derived CPPs disrupts growth of multiple breast cancer cell subtypes but has no effect on normal cells. A) Schematic of RRM3 amino acids 441-510 (SEQ ID NO: 13). B) Bars represent the peptide regions used to generate CPPs based on deletion results in FIG. 31. C) Amino acid sequences of synthetic peptide: Penetratin, His tag and RRM3-derived peptide. D) Representative images of crystal violet stained breast cancer cells as listed at top, taken after 72 hours days of treatment with synthetic peptides at 5 μM. E) Quantification of total cell numbers of different cell types and peptide (1-5) treatments.
FIG. 31. Key structural domains mediate the RRM3-MLL1 interaction. A) Modeling of RRM3 domain structure (amino acids: 441 to 510; SEQ ID NO: 13) using the SWISS MODEL tool and conserved domains by sequence alignment with vertebrate RRM-domaining proteins (https://www.ncbi.nlm.nih.gov/Structure/cdd/cddsrv.cgi?uid=240731) B) Top: anti-MLL1 IB to test the interaction between MLL1 and myc-tagged, deletion mutant RRM3 proteins in HEK293 cells. Bottom: IB/IP to quantitate myc-tagged proteins in lysates from HEK293 overexpressing wild type and microdeleted RRM3 domains. C) Bar graphs quantitating % viable cells after peptide treatments (peptides are numbered 1-5 as in FIG. 10) for 4 days. […] Lanes are labeled with peptide names. Arrowhead highlights signal from the entry of CPP. […] F) Anti-RBM39 immunoprecipitated samples from Neg.CPP (SEQ ID NO: 12), CPP-L491-L508 (SEQ ID NO: 24), CPP-G441-V460 (SEQ ID NO: 20), and CPP-E445-V476 (SEQ ID NO: 15) treated T47D lysates assayed by immunoblotting with antibodies against MLL1, ASH2L, RbBP5. […] G) Representative co-immunoprecipitations to show the interaction between RBM39 and its RBP interactors in Neg.CPP and CPP-E445-V476 treated T47D cell lysates. […] Immunoprecipitations and Immunoblots assaying RBM39-MLL1 interaction in neg.CPP and CPP-E445-V476 treated T47D, HCC1954, MDA-MB231 and ZR7530 cells show reduced interaction between MLL1 and RBM39 in vivo. (arrows highlight decreased interaction).
as §1
Generation of synthetic peptides from the RRM3 domain: RRM3-derived peptides were commercially synthesized by Abm at purity >80%. Peptides were dissolved in 1λPBS at 1 mg/ml and used at 5 μM in low serum (1%) RPMI media.
As per UniProt, RRM3 spans amino acids (aa) 445-508 (SEQ ID NO: 34) and SWISS tool predicts 2 α helices and 4 β sheets that are conserved in vertebrate RRM-containing proteins (FIG. 31A). A series of myc-tag microdeleted constructs were designed to identify regions required for MLL1 binding. […]

[2] = molecular target: T1, RBM39 and RNA binding proteins (RBPs) (Homo sapiens, UniProt Q14498); assay: Co-immunoprecipitation of RBM39 and its RBP interactors in peptide-treated T47D cell lysates; type: cell-based; details: versus Neg.CPP
T1 construct: endogenous in cells; host or cells: T47D
T1 sequence (Q14498 2-530 limits assumed): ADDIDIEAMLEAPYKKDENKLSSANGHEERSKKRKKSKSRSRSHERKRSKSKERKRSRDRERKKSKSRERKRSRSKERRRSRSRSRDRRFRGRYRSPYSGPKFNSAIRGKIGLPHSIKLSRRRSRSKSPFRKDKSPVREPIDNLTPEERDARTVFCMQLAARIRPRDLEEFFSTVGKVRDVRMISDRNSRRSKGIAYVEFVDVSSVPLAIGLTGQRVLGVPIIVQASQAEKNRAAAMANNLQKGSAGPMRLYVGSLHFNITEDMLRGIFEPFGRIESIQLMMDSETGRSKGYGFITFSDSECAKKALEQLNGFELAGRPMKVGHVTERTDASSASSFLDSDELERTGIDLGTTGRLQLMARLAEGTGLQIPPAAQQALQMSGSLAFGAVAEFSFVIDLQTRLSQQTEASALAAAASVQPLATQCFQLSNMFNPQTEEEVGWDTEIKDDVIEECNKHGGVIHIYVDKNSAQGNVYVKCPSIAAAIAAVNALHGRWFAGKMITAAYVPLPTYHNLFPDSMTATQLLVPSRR
Description: (§2) FIG. 31. Key structural domains mediate the RRM3-MLL1 interaction. A) Modeling of RRM3 domain structure (amino acids: 441 to 510; SEQ ID NO: 13) using the SWISS MODEL tool and conserved domains by sequence alignment with vertebrate RRM-domaining proteins (https://www.ncbi.nlm.nih.gov/Structure/cdd/cddsrv.cgi?uid=240731) B) Top: anti-MLL1 IB to test the interaction between MLL1 and myc-tagged, deletion mutant RRM3 proteins in HEK293 cells. Bottom: IB/IP to quantitate myc-tagged proteins in lysates from HEK293 overexpressing wild type and microdeleted RRM3 domains. C) Bar graphs quantitating % viable cells after peptide treatments (peptides are numbered 1-5 as in FIG. 10) for 4 days. […] Lanes are labeled with peptide names. Arrowhead highlights signal from the entry of CPP. […] F) Anti-RBM39 immunoprecipitated samples from Neg.CPP (SEQ ID NO: 12), CPP-L491-L508 (SEQ ID NO: 24), CPP-G441-V460 (SEQ ID NO: 20), and CPP-E445-V476 (SEQ ID NO: 15) treated T47D lysates assayed by immunoblotting with antibodies against MLL1, ASH2L, RbBP5. […] G) Representative co-immunoprecipitations to show the interaction between RBM39 and its RBP interactors in Neg.CPP and CPP-E445-V476 treated T47D cell lysates. […]

[3] = molecular target: T2, RBM39 (CAPERα)/MLL1 complex (Homo sapiens, UniProt Q03164); assay: Anti-RBM39 co-immunoprecipitation of MLL1 complex members from peptide-treated breast cancer cell lysates; type: cell-based
T2 construct: endogenous in cells; lines from ATCC
T2 sequence (Q03164 1-2718 limits assumed): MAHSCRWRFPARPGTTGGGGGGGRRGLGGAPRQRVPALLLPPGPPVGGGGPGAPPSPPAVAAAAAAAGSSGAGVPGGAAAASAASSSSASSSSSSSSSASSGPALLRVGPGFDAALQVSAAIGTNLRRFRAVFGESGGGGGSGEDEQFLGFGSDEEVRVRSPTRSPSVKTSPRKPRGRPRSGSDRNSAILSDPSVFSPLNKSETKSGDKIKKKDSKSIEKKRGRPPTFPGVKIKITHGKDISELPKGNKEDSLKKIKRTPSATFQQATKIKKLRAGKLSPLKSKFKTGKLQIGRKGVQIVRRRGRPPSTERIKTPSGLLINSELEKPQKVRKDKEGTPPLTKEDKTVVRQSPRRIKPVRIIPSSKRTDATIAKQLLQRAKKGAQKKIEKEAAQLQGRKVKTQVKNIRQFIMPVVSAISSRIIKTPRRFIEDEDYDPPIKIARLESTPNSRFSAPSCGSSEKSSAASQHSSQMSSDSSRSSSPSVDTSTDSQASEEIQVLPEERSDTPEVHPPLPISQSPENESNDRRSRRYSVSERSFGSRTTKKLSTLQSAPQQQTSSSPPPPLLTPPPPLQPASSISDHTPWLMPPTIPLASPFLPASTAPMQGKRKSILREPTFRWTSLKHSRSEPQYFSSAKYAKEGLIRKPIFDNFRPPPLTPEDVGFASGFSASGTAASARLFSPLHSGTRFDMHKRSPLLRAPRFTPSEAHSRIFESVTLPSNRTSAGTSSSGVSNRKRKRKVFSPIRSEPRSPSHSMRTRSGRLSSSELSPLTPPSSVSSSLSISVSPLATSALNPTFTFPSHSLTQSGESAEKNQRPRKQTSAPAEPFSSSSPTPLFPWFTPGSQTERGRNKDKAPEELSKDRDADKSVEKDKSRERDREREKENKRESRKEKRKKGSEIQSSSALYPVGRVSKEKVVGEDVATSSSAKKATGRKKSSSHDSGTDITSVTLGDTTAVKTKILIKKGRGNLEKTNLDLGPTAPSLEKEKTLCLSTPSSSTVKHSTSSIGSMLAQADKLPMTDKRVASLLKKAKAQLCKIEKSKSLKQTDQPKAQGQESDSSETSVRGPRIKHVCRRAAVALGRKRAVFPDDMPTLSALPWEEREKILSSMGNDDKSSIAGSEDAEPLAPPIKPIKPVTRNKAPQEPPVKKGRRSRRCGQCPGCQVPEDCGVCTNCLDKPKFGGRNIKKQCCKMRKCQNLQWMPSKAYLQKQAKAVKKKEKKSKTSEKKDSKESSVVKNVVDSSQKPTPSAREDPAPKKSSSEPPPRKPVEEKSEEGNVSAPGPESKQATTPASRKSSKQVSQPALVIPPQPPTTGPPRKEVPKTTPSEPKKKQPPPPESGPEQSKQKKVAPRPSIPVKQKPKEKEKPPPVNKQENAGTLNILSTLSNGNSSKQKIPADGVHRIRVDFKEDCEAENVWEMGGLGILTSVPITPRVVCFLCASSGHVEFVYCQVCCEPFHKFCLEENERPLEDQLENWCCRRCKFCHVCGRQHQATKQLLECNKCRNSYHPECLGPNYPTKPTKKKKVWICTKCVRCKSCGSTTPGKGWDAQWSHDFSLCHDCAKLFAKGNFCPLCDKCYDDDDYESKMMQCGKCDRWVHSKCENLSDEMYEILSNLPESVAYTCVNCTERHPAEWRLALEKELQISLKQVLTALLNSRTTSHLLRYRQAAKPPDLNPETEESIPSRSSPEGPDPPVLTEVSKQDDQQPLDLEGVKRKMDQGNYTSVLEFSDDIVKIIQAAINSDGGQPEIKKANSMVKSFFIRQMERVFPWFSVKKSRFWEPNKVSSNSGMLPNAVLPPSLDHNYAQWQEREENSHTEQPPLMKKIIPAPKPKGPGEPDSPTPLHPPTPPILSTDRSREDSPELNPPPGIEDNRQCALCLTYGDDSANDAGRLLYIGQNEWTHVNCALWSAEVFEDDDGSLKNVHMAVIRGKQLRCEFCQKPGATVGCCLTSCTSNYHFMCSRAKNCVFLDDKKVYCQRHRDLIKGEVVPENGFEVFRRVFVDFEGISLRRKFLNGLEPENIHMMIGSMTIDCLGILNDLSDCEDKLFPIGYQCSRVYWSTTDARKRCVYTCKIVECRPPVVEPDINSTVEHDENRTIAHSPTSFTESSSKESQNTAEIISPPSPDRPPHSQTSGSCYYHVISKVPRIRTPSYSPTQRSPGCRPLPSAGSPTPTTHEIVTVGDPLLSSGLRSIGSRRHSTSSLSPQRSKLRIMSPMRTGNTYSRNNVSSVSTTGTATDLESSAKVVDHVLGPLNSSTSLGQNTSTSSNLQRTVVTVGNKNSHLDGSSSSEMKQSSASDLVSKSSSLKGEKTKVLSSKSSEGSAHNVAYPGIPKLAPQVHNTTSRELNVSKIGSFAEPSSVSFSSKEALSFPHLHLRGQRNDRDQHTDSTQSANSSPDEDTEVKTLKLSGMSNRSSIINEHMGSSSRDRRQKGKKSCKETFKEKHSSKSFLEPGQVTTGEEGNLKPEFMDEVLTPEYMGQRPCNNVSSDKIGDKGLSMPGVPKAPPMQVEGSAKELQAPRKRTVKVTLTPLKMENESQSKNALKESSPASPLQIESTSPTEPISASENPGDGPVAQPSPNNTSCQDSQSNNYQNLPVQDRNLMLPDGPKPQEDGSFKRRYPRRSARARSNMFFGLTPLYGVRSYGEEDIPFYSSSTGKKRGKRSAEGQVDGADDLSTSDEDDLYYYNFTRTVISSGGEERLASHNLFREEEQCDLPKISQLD
T2 sequence (Q03164 2719-3969 limits assumed): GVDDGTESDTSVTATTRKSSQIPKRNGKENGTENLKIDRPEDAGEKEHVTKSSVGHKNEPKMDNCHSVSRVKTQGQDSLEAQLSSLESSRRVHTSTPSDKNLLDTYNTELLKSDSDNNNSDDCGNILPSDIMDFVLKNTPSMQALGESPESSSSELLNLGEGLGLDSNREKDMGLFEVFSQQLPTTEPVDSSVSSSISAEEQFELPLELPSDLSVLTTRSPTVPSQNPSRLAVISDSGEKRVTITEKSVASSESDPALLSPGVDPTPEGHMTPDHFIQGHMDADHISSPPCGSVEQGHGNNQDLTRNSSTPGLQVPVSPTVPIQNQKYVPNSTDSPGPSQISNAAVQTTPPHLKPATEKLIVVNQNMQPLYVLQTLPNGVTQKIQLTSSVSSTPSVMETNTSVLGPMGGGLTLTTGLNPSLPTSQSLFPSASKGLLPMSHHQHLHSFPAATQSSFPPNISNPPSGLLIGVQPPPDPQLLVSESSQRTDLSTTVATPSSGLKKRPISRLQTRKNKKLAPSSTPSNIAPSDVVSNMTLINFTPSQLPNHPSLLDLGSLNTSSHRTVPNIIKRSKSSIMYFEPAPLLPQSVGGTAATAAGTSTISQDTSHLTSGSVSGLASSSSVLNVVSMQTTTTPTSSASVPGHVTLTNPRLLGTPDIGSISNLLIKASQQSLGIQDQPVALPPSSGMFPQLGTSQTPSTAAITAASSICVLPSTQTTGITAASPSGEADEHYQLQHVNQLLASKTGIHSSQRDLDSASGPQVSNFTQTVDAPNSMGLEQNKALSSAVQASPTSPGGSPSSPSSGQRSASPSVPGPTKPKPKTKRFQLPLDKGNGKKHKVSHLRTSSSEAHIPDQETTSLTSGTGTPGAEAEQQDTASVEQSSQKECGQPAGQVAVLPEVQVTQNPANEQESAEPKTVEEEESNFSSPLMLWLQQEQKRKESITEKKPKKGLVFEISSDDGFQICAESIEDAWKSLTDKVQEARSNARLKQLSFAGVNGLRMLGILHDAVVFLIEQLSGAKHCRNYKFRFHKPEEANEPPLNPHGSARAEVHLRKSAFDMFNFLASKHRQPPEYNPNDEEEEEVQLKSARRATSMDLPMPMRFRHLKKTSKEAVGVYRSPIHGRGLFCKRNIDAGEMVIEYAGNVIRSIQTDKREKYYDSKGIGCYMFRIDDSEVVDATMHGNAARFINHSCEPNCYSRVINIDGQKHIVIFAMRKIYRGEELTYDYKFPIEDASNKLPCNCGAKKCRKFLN
T2 sequence (Q15291 whole entry partner): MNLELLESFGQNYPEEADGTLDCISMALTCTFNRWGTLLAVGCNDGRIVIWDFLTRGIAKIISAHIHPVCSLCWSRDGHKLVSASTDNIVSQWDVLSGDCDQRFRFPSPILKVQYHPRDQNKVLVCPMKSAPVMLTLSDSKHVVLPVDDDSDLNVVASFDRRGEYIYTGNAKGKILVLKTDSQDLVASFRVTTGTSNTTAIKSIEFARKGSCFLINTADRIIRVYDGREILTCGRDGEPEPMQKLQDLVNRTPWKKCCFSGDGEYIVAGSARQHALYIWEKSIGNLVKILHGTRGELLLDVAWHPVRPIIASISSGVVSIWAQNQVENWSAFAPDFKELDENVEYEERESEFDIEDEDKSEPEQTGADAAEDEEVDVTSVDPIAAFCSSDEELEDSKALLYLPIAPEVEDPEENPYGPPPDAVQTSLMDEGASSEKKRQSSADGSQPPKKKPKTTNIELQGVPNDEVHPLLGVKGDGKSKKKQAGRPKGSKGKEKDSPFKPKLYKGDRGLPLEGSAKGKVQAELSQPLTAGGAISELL
Description: as §2

Substance | effect on PMEs / normal cells (proliferation and viability) (PME cells) | proliferation (total cell number) of breast cancer cell subtypes [1] | viability (% viable cells) of breast cancer cell subtypes ([1]; 4 days) | interaction of RBM39 with RBPs [2] | endogenous interaction between RBM39 and MLL1 ([3]; T47D, HCC1954, MDA-MB231 and ZR7530 cells, versus neg.CPP) | interaction between RBM39 and MLL1 complex members (MLL1, ASH2L, RbBP5) ([3]; treated T47D lysates, anti-RBM39 immunoprecipitation)
CPP-E445-V476: synthetic RRM3-derived peptide E445-V476 with Penetratin and His tags (SEQ ID NO: 15; with His tag SEQ ID NO: 14) (RQIKIWFQNRRMKWKKGGEIKDDVIEECNKHGGVIHIYVDKNSAQGNVYVHHHHHH; RRM3-derived synthetic sequence) | no effect | pronounced effects on all subtypes | pronounced effects on all subtypes | did not affect the interaction | disrupts the endogenous interaction | reduced the interaction
CPP-G441-V460: synthetic RRM3-derived peptide G441-V460 with Penetratin and His tags (SEQ ID NO: 20; with His tag SEQ ID NO: 21) (RQIKIWFQNRRMKWKKGGGWDTEIKDDVIEECNKHGGVHHHHHH; RRM3-derived synthetic sequence) |  | affected some Luminal and HER2+ subtypes |  |  |  | 
RRM3 E445-V476: RRM3 E445-V476 peptide in the absence of Penetratin, negative control (SEQ ID NO: 2) (EIKDDVIEECNKHGGVIHIYVDKNSAQGNVYV; listed as Homo sapiens) |  | no effect |  |  |  | 

— US20220265769A1, “COMPOSITIONS AND METHODS OF TREATMENT FOR BREAST CANCER INVOLVING A NOVEL CAPER?-MLL1 COMPLEX” (Geisinger Health, priority 2019, published 2022)
